According to article PMC11033320, “Activation of p53 signaling and regression of breast and prostate carcinoma cells by spirooxindole-benzimidazole small molecules” (Frontiers in Pharmacology, 2024):

How the values were obtained:
M14 = experiment: NCI anticancer screening, Melanoma M14; assay type: cell-based; conditions: Homo sapiens; M14, 10 μM; read-out: % Growth Inhibition (GI %)
Source text: (§1) The compound has been processed according to standard method NCI-60 Human Tumor Cell Lines Screen for organic compound at development therapeutic program (DTP). Requests for access to this national resource can be submitted online at: […]

SK-MEL-28 = experiment: NCI anticancer screening, Melanoma SK-MEL-28; assay type: cell-based; conditions: Homo sapiens; SK-MEL-28, 10 μM; read-out: % Growth Inhibition (GI %)
Source text: as §1

LOX IMVI = experiment: NCI anticancer screening, Melanoma LOX IMVI; assay type: cell-based; conditions: Homo sapiens, read-out: % Growth Inhibition (GI %)
Source text: as §1

OVCAR-4 = experiment: NCI anticancer screening, Ovarian Cancer OVCAR-4; assay type: cell-based; conditions: Homo sapiens; OVCAR-4, 10 μM; read-out: % Growth Inhibition (GI %)
Source text: as §1

786-0 = experiment: NCI anticancer screening, Renal Cancer 786-0; assay type: cell-based; conditions: Homo sapiens; 786-0, 10 μM; read-out: % Growth Inhibition (GI %)
Source text: as §1

RPMI-8226 = experiment: NCI anticancer screening, Leukemia RPMI-8226; assay type: cell-based; conditions: Homo sapiens; RPMI-8226, 10 μM; read-out: % Growth Inhibition (GI %)
Source text: as §1

[1] = MTT cytotoxicity to normal human lung fibroblast Wi-38 cell line; assay type: cell-based; conditions: Wi-38 normal lung fibroblast cells, mean ± SEM, read-out: percentage of Wi-38 viability
Experimental: Normal human lung fibroblast Wi-38 cell line was used to detect cytotoxicity of the studied compounds (Table S8). Wi-38 cell line was cultured in DMEM medium-contained 10% fetal bovine serum (FBS), seeded as 5x10^3 cells per well in 96-well cell culture plate and incubated at 37 °C in 5% CO2 incubator. After 24 h for cell attachment, serial concentrations of the synthetic compounds were incubated with Wi-38 cells for 72 h. Cell viability was assayed by MTT method (Mosmann, 1983). Twenty microliters of 5 mg/ml MTT (Sigma, USA) was added to each well and the plate was incubated at 37 °C for 3 h. Then MTT solution was removed, 100 µl DMSO was added and the absorbance of each well was measured with a microplate reader (BMG LabTech, Germany) at 570 nm.

BT-549 = experiment: NCI anticancer screening, Breast Cancer BT-549; assay type: cell-based; conditions: Homo sapiens; BT-549, 10 μM; read-out: % Growth Inhibition (GI %)
Source text: as §1

NCI-H322M = experiment: NCI anticancer screening, Non-Small Cell Lung Cancer NCI-H322M; assay type: cell-based; conditions: Homo sapiens, read-out: % Growth Inhibition (GI %)
Source text: as §1

UACC-257 = experiment: NCI anticancer screening, Melanoma UACC-257; assay type: cell-based; conditions: Homo sapiens; UACC-257, 10 μM; read-out: % Growth Inhibition (GI %)
Source text: as §1

DU-145 = experiment: NCI anticancer screening, DU-145; assay type: cell-based; conditions: Homo sapiens; DU-145, 10 μM; read-out: % Growth Inhibition (GI %)
Source text: as §1

NCI-H460 = experiment: NCI anticancer screening, Non-Small Cell Lung Cancer NCI-H460; assay type: cell-based; conditions: Homo sapiens; NCI-H460, 10 μM; read-out: % Growth Inhibition (GI %)
Source text: as §1

SF-268 = experiment: NCI anticancer screening, CNS Cancer SF-268; assay type: cell-based; conditions: Homo sapiens; SF-268, 10 μM; read-out: % Growth Inhibition (GI %)
Source text: as §1

KM12 = experiment: NCI anticancer screening, Colon Cancer KM12; assay type: cell-based; conditions: Homo sapiens; KM12, 10 μM; read-out: % Growth Inhibition (GI %)
Source text: as §1

PC-3 cells = experiment: MTT assay anticancer activity, PC-3; assay type: cell-based; conditions: Homo sapiens, PC-3, 5 µM, mean ± SEM, read-out: growth inhibition percentage of PC-3
Source text: MTT method was done as described above.

SK-MEL-5 = experiment: NCI anticancer screening, Melanoma SK-MEL-5; assay type: cell-based; conditions: Homo sapiens; SK-MEL-5, 10 μM; read-out: % Growth Inhibition (GI %)
Source text: as §1

HT29 = experiment: NCI anticancer screening, Colon Cancer HT29; assay type: cell-based; conditions: Homo sapiens, HT-29; HT29, 10 μM; read-out: % Growth Inhibition (GI %)
Source text: as §1

MDA-MB 231 cells = conditions: for inhibition: 5 µM
Experimental: Anticancer effect of the above-mentioned compounds was assayed using three human cancer cell lines. Triple negative breast cancer cell line (MDA-MB 231) and prostate cancer cell line (PC3) were cultured in DMEM (Lonza, USA) supplemented with 10% FBS. All cancer cells (4x10^3 cells/well) were seeded in sterile 96-well plates. After 24h, serial concentrations of the tested compounds were incubated with three cancer cell lines for 72 h at 37 °C in 5% CO2 incubator. […] The half maximal inhibitory concentration (IC50) values were calculated using the Graphpad Instat software.

UO-31 = experiment: NCI anticancer screening, Renal Cancer UO-31; assay type: cell-based; conditions: Homo sapiens; UO-31, 10 μM; read-out: % Growth Inhibition (GI %)
Source text: as §1

RXF 393 = experiment: NCI anticancer screening, Renal Cancer RXF 393; assay type: cell-based; conditions: Homo sapiens; RXF 393, 10 μM; read-out: % Growth Inhibition (GI %)
Source text: as §1

A549/ATCC = experiment: NCI anticancer screening, Non-Small Cell Lung Cancer A549/ATCC; assay type: cell-based; conditions: Homo sapiens, read-out: % Growth Inhibition (GI %)
Source text: as §1

K-562 = experiment: NCI anticancer screening, Leukemia K-562; assay type: cell-based; conditions: Homo sapiens, K562; K-562, 10 μM; read-out: % Growth Inhibition (GI %)
Source text: as §1

SNB-19 = experiment: NCI anticancer screening, CNS Cancer SNB-19; assay type: cell-based; conditions: Homo sapiens; SNB-19, 10 μM; read-out: % Growth Inhibition (GI %)
Source text: as §1

UACC-62 = experiment: NCI anticancer screening, Melanoma UACC-62; assay type: cell-based; conditions: Homo sapiens; UACC-62, 10 μM; read-out: % Growth Inhibition (GI %)
Source text: as §1

HS 578T = experiment: NCI anticancer screening, Breast Cancer HS 578T; assay type: cell-based; conditions: Homo sapiens, read-out: % Growth Inhibition (GI %)
Source text: as §1

NCI-H522 = experiment: NCI anticancer screening, Non-Small Cell Lung Cancer NCI-H522; assay type: cell-based; conditions: Homo sapiens; NCI-H522, 10 μM; read-out: % Growth Inhibition (GI %)
Source text: as §1

MOLT-4 = experiment: NCI anticancer screening, Leukemia MOLT-4; assay type: cell-based; conditions: Homo sapiens; MOLT-4, 10 μM; read-out: % Growth Inhibition (GI %)
Source text: as §1

SW-620 = experiment: NCI anticancer screening, Colon Cancer SW-620; assay type: cell-based; conditions: Homo sapiens; SW-620, 10 μM; read-out: % Growth Inhibition (GI %)
Source text: as §1

MALME-3M = experiment: NCI anticancer screening, Melanoma MALME-3M; assay type: cell-based; conditions: Homo sapiens, read-out: % Growth Inhibition (GI %)
Source text: as §1

MCF7 = experiment: NCI anticancer screening, Breast Cancer MCF7; assay type: cell-based; conditions: Homo sapiens; MCF7, 10 μM; read-out: % Growth Inhibition (GI %)
Source text: as §1

HOP-92 = experiment: NCI anticancer screening, Non-Small Cell Lung Cancer HOP-92; assay type: cell-based; conditions: Homo sapiens; HOP-92, 10 μM; read-out: % Growth Inhibition (GI %)
Source text: as §1

T-47D = experiment: NCI anticancer screening, Breast Cancer T-47D; assay type: cell-based; conditions: Homo sapiens, T47D, read-out: % Growth Inhibition (GI %)
Source text: as §1

Compound | inhibition at 10 µM (M14) [%] | inhibition at 10 µM (SK-MEL-28) [%] | inhibition at 10 µM (LOX IMVI) [%] | inhibition at 10 µM (OVCAR-4) [%] | inhibition at 10 µM (786-0) [%] | inhibition at 10 µM (RPMI-8226) [%] | viability at 72 h, 5 µM [1] [%] | inhibition at 10 µM (BT-549) [%] | inhibition at 10 µM (NCI-H322M) [%] | inhibition at 10 µM (UACC-257) [%] | inhibition at 10 µM (DU-145) [%] | melting point [°C] | inhibition at 10 µM (NCI-H460) [%] | inhibition at 10 µM (SF-268) [%] | inhibition at 10 µM (KM12) [%] | inhibition at 5 µM (PC-3 cells) [%] | inhibition at 10 µM (SK-MEL-5) [%] | inhibition at 10 µM (HT29) [%] | inhibition (MDA-MB 231 cells) [%] | inhibition at 10 µM (UO-31) [%] | other results
O=C(c1nc2ccccc2[nH]1)[C@H]1[C@H](c2cccc(O)c2)C2CSCN2[C@]12C(=O)Nc1ccccc12 (stereo partly drawn) [Compound 6h, (3S,6′R)-6'-(1H-Benzo [d]imidazole-2-carbonyl)-7'-(3-hydroxyphenyl)-3′,6′,7′,7a′-tetrahydro-1′H-spiro [indoline-3.5′-pyrrolo [1,2-c]thiazol]-2-one] | 97.3 | 95.3 | 84.3 | 82.1 | 101 | 82.4 | 51 ± 1.83 | 107 | 93.5 | 91.9 | 105 | 205 to 207 | 94.8 | 88.5 | 89.4 | 40.4 ± 1.25 | 93.7 | 104 | 40.2 | 60.6 | IC50 (MDA-MB 231 cells): 5.44 ± 0.167 µM; inhibition at 10 µM (RXF 393): 104%; inhibition at 10 µM (A549/ATCC): 95.4%; inhibition at 10 µM (K-562): 92.5%; inhibition at 10 µM (SNB-19): 97.8%; inhibition at 10 µM (UACC-62): 80%; inhibition at 10 µM (HS 578T): 80.4%; inhibition at 10 µM (NCI-H522): 83.9%; inhibition at 10 µM (MOLT-4): 91.2%; inhibition at 10 µM (SW-620): 91.8%; inhibition at 10 µM (MALME-3M): 96.8%; inhibition at 10 µM (MCF7): 92.8%; inhibition at 10 µM (HOP-92): 98.3%; inhibition at 10 µM (T-47D): 76.3%
COc1cc([C@@H]2C3CSCN3[C@]3(C(=O)Nc4ccccc43)[C@H]2C(=O)c2nc3ccccc3[nH]2)cc(OC)c1OC (stereo partly drawn) [Compound 6i, (3S,6′R)-6'-(1H-Benzo [d]imidazole-2-carbonyl)-7'-(3,4,5-trimethoxyphenyl)-3′,6′,7′,7a′-tetrahydro-1′H-spiro [indoline-3.5′-pyrrolo [1,2-c]thiazol]-2-one] | 107 | 107 | 101 | 100 | 99.4 | 108 | 43.3 ± 0.917 | 93.7 | 93.1 | 87.8 | 111 | 245 to 247 | 105 | 99.2 | 101 | 49.8 ± 3.12 | 103 | 107 | 46 ± 1.41 | 86.6 | inhibition at 10 µM (RXF 393): 109%; inhibition at 10 µM (A549/ATCC): 89.4%; inhibition at 10 µM (K-562): 94.2%; inhibition at 10 µM (SNB-19): 100%; inhibition at 10 µM (UACC-62): 87.4%; inhibition at 10 µM (HS 578T): 102%; inhibition at 10 µM (NCI-H522): 88.3%; inhibition at 10 µM (MOLT-4): 97.4%; inhibition at 10 µM (SW-620): 99.5%; inhibition at 10 µM (MALME-3M): 99.8%; inhibition at 10 µM (MCF7): 99.9%; inhibition at 10 µM (HOP-92): 106%; inhibition at 10 µM (T-47D): 102%
O=C(c1nc2ccccc2[nH]1)[C@H]1[C@H](c2ccccc2O)C2CSCN2[C@]12C(=O)Nc1ccccc12 (stereo partly drawn) [Compound 6j, (3S,6′R)-6'-(1H-Benzo [d]imidazole-2-carbonyl)-7'-(2-hydroxyphenyl)-3′,6′,7′,7a′-tetrahydro-1′H-spiro [indoline-3.5′-pyrrolo [1,2-c]thiazol]-2-one] | 95.1 | 99 | 89.2 | 86.5 | 106 | 104 | 40 ± 2.38 | 93.6 | 99.8 | 95.6 | 98.7 | 186 to 188 | 97.4 | 91.7 | 82.5 | 40.3 ± 3.44 | 94 | 99.3 | 40.8 ± 1.63 | 73.9 | IC50 (MDA-MB 231 cells): 4.665 ± 0.009 µM; inhibition at 10 µM (RXF 393): 88.2%; inhibition at 10 µM (A549/ATCC): 98.7%; inhibition at 10 µM (K-562): 96.4%; inhibition at 10 µM (SNB-19): 93.7%; inhibition at 10 µM (UACC-62): 77.3%; inhibition at 10 µM (HS 578T): 85%; inhibition at 10 µM (NCI-H522): 87.2%; inhibition at 10 µM (MOLT-4): 89.5%; inhibition at 10 µM (SW-620): 95.4%; inhibition at 10 µM (MALME-3M): 105%; inhibition at 10 µM (MCF7): 92.4%; inhibition at 10 µM (HOP-92): 97.3%; inhibition at 10 µM (T-47D): 80.9%
O=C(c1nc2ccccc2[nH]1)[C@H]1[C@H](c2ccc(Br)cc2)C2CSCN2[C@]12C(=O)Nc1ccccc12 (stereo partly drawn) [Compound 6l, (3S,6′R)-6'-(1H-Benzo [d]imidazole-2-carbonyl)-7'-(4-bromophenyl)-3′,6′,7′,7a′-tetrahydro-1′H-spiro [indoline-3.5′-pyrrolo [1,2-c]thiazol]-2-one] | 68.6 | 84.8 | 73.2 | 70.8 | 91.5 | 61.3 | 37.4 ± 2.02 | 90.2 | 89.9 | 77.9 | 97.1 | 172 to 174 | 66.2 | 71.5 | 59.8 | 55.1 ± 1.98 | 84.8 | 80.2 | 53.59 ± 0.109 | 48.6 | IC50 (MDA-MB 231 cells): 4.51 ± 0.203 µM; inhibition at 10 µM (RXF 393): 62.1%; inhibition at 10 µM (A549/ATCC): 73%; inhibition at 10 µM (K-562): 74.5%; inhibition at 10 µM (SNB-19): 67%; inhibition at 10 µM (UACC-62): 70.5%; inhibition at 10 µM (HS 578T): 67.6%; inhibition at 10 µM (NCI-H522): 91.2%; inhibition at 10 µM (MOLT-4): 56.3%; inhibition at 10 µM (SW-620): 80.7%; inhibition at 10 µM (MALME-3M): 78.5%; inhibition at 10 µM (MCF7): 60.6%; inhibition at 10 µM (HOP-92): 96.9%; inhibition at 10 µM (T-47D): 54.7%
